Measured values: US8338616B2, “Thiazoliums and their use for treating protein aging associated diseases” (Beijing Molecule Science And Technology Co., Ltd., priority 2008, dated 2012)
“And” between values parts separate entries of the source, which are not always exact repeats. Equal values may be shown once. Read-outs that look alike come from different tables or passages of the source. Marks after values point to notes of the source that are not given here.

Assays:
[1] = system: tail collagen of diabetic rats; details: diabetic model 19.7±7.2
Method: Tail tendon collagen fibrils were taken out under ice-bath, washed with physiological saline, peeled off non-collagen tissues, lyophilized and stored at −70° C. for standby use.
The lyophilized tail collagen was cut into pieces, 2 mg of tail collagen was precisely weighed, added with 10 μg/ml pepsin (solvent: 0.5 mol/L acetic acid) to reach a final concentration of 5 μg pepsin/mg tail collagen, shanken at 4° C. for 2 h, centrifuged at 40000 g for 60 min, after the volume of supernatant was precisely measured, 500 μl of supernatant and total deposition were separately transferred into 5 ml ampules, added with 6 mol/L HCl, sealed, placed in calorstat oven, and hydrolyzed at 110° C. for 24 h.
Measurement of hydroxyproline concentration in the hydrolysis solution: (1) 100 μl of hydrolysis solution was taken from each of ampules, added with about 50 μl 10 mol/L NaOH to pH 6.0, and citric acid buffer solution (50 g citric acid.H2O, 72.36 g anhydrous sodium acetate, 34 g NaOH, 11.52 ml glacial acetic acid were mixed and added with water to 1200 ml, and added with 300 ml n-propanol) 850 μl. […] (4) 10% P-DMAB (1 g p-dimethylaminobenzaldehyde, added with 3.15 mol/L perchloric acid 2.6 ml to dissolve, then diluted with n-propanol to 10 ml, ready to use) 500 μl was added, mixed quickly at 75° C. water-bath for 10 min. […]

diabetic rats = details: for CO / Cl / Diastolic pressure / Heart rate / SAC / Systolic pressure / TPR / TPR index / Organ parameters: Heart / Organ parameters: Heart ventricle / Organ parameters: Left kidney / Organ parameters: Left ventricle / Organ parameters: Right kidney: diabetic rats; for CO / Cl / Diastolic pressure / Heart rate / SAC / Systolic pressure / TPR / TPR index: 4 weeks; for Organ parameters: Heart / Organ parameters: Heart ventricle / Organ parameters: Left kidney / Organ parameters: Left ventricle / Organ parameters: Right kidney: dose not given
Method: Rats were anesthetized with pentobarbital sodium injection (0.8%, 50 mg/kg), subjected to tracheal cannula, heparin anticoagulation, right common carotid artery cannula, communicated with Biopac physiological recorder via is pressure transducers to record blood pressure; subjected to thoracotomy at middle of sternum, separation of ascending aorta which was covered with pulse Doppler probe, and the pulse Doppler rheometer was linked to the Biopac physiological recorder for real-time recording and calculating hemodynamic parameters by the software of Biopac (Acknowledge, Version 3): systolic blood pressure (SBP), diastolic blood pressure (DBP), heart rate (HR), cardiac output
(CO), cardiac index (CI), total peripheral resistance (TPR), total peripheral resistance index (TPR Index), stroke volume (SV) and system arterial compliance (SAC), etc. After 10 min of postoperative stabilization, these parameters were recorded continuously, and mean values for 30 s were used as the measured values of these parameters.
Formula for calculating some of hemodynamic parameters: TPR=mean arterial pressure (MAP)/CO SAC=SV/(SBP−DBP)

[2] = system: IgG cross-linked on red blood cell surface; details: RBC of diabetic rats
Method: In vitro administration: 0.1 mol/L isoosmia PBS (pH7.4) was used as negative control, and it was used as solvent to form drug solutions of the compounds to be tested with different concentrations. Per 900 μl drug solution or solvent control was added with 100 μl RBC, slightly shaken at 37° C. for 16-18 h; centrifuged at 1000 g and 4° C. for 3 min, supernatant was discarded, 0.1 mol/L is PBS (pH7.4) was used to wash plate for 4 times to remove residual compound;
centrifuged at 1000 g and 4° C. for 3 min, a lower layer of RBC was obtained, diluted by 1:100 and used for ELISA assay.
Immunoadsorption assay protocol for IgG content cross-linked on RBC surface: Multiscreen-HA 0.45 μm 96 well microtiter plate (Millipore) was blocked with Superblock (300 μl/well) at 37° C. for 1 h; then dried at a reduced pressure of 5 mmHg, the plate was washed with PBST for 3 time, with 0.1 MPBS (pH7.4) for 3 times, and the plate was shaken for 1 min per time; the RBC to be tested was added (50 μl/well), and PBS background control wells were set (OD0); dried by suction at a reduced pressure; washed with 0.1mol/L PBS (pH7.4) 150 μl for 4 time, the plate was shaken for 1 min per time. After dried by suction at a reduced pressure, 1:500 diluted goat anti-mouse IgG-HRP (50 μl/well) was added, stood at room temperature for 2 h, dried by suction; washed with 0.1 mol/L PBS (pH7.4) 150μl/well for 3 times, the plate was shaken for 1 min per time; dried by suction; o-phenylene diamine (OPD) substrate coloration solution (100 μl/well) was added, stood at room temperature for 30 min under protection from light, the reaction was terminated with 2 mol/L H2SO4 (100 μl/well); the reaction liquid was quickly drawn off (150 μl/well) and transferred to a normal 96 well enzyme labeled plate, and OD values were measured at 490 nm.
Corrected OD=average OD of RBC sample to be tested−average OD of PBS background wells without RBC, the breaking rate of the compounds is expressed as the percentages of OD490 nm decrease: (OD490 nm of PBS wells−OD490 nm of the compound to be tested)/OD490 nm of PBS wells×100%.

[3] = system: left ventricular cardiac muscle collagen of diabetic rats; details: printed for the group of A 18 mg/kg (three values), diabetic model 42.8±4.3, sodium
Method: After the end of vascular compliance experiment, the heart of each of rats was taken, trimmed to remove heart auricle and right ventricle and remain only left ventricle, the trimmed tissue block was planced in a mortar, added with a small amount of liquid nitrogen and ground rapidly, added with a small amount of liquid nitrogen again when the tissue became soft and ground continuously to form a fine powder, and stored at −70° C. for standby use. About 100 mg of cardiac muscle was weighed, added with 1 ml 200 μg/ml pepsin (solvent: 0.5 mol/L acetic acid), shaken at 37 ° C. for 2 h and 24 h, respectively, centrifuged at 40000 g for 60 min, the supernatants of pepsin digestion solutions for 2 h and 24 h were separately taken, hydrolyzed and measured to determine hydroxyproline contents (the methods for hydrolysis and measurement are the same as aforementioned). The dissolubility of cardiac muscle collagen is calculated by the following formula: […]

Cc1csc[n+]1CC(=O)O.[Na+] [A, 3-carboxymethyl-4-methyl-thiazolium bromide sodium]
tail collagen dissolubility ([1]; A 18 mg/kg): 33.7±17.8% | tail collagen dissolubility ([1]; A 36 mg/kg): 37.5±11.1% | CO (diabetic rats; 9 mg/kg i.g.): 84.9 ± 13.6 mL/min | Cl (diabetic rats; 9 mg/kg i.g.): 0.194 ± 0.031 ml/min per cm^2 | Diastolic pressure (diabetic rats; 9 mg/kg i.g.): 68.8 ± 14.0 mmHg | Heart rate (diabetic rats; 9 mg/kg i.g.): 265.2 ± 25.8^ beats/min | SAC (diabetic rats; 9 mg/kg i.g.): 9.05 ± 1.44** 10^−3 ml/mmHg | Systolic pressure (diabetic rats; 9 mg/kg i.g.): 105.3 ± 12.0 mmHg | TPR (diabetic rats; 9 mg/kg i.g.): 78.6 ± 19.7** 10^3 · dyne · sec/cm^5 | TPR index (diabetic rats; 9 mg/kg i.g.): 181.6 ± 51.3 dyne · sec/cm^3 | CO (diabetic rats; 18 mg/kg i.g.): 79.2 ± 10.6 mL/min | Cl (diabetic rats; 18 mg/kg i.g.): 0.179 ± 0.026 ml/min per cm^2 | Diastolic pressure (diabetic rats; 18 mg/kg i.g.): 72.8 ± 17.2 mmHg | Heart rate (diabetic rats; 18 mg/kg i.g.): 282.2 ± 31.9^ beats/min | SAC (diabetic rats; 18 mg/kg i.g.): 8.02 ± 1.27** 10^−3 ml/mmHg | Systolic pressure (diabetic rats; 18 mg/kg i.g.): 108.7 ± 14.7 mmHg | TPR (diabetic rats; 18 mg/kg i.g.): 87.4 ± 22.3* 10^3 · dyne · sec/cm^5 | TPR index (diabetic rats; 18 mg/kg i.g.): 198.2 ± 56.2 dyne · sec/cm^3 | CO (diabetic rats; 36 mg/kg i.g.): 77.7 ± 10.0 mL/min | Cl (diabetic rats; 36 mg/kg i.g.): 0.179 ± 0.024 ml/min per cm^2 | Diastolic pressure (diabetic rats; 36 mg/kg i.g.): 60.7 ± 16.1 mmHg | Heart rate (diabetic rats; 36 mg/kg i.g.): 261.0 ± 32.3^ beats/min | SAC (diabetic rats; 36 mg/kg i.g.): 7.92 ± 1.11* 10^−3 ml/mmHg | Systolic pressure (diabetic rats; 36 mg/kg i.g.): 99.2 ± 13.2 mmHg | TPR (diabetic rats; 36 mg/kg i.g.): 77.0 ± 19.6** 10^3 · dyne · sec/cm^5 | TPR index (diabetic rats; 36 mg/kg i.g.): 176.4 ± 44.6 dyne · sec/cm^3 | Organ parameters: Heart (diabetic rats; first of three A lines): 3.42 g/g × 10^-3 | Organ parameters: Heart ventricle (diabetic rats; first of three A lines): 2.99 g/g × 10^-3 | Organ parameters: Left kidney (diabetic rats; first of three A lines): 5.20 g/g × 10^-3 | Organ parameters: Left ventricle (diabetic rats; first of three A lines): 2.29 g/g × 10^-3 | Organ parameters: Right kidney (diabetic rats; first of three A lines): 5.33 g/g × 10^-3 | Organ parameters: Heart (diabetic rats; second of three A lines): 3.44 g/g × 10^-3 | Organ parameters: Heart ventricle (diabetic rats; second of three A lines): 3.01 g/g × 10^-3 | Organ parameters: Left kidney (diabetic rats; second of three A lines): 5.16 g/g × 10^-3 | Organ parameters: Left ventricle (diabetic rats; second of three A lines): 2.34 g/g × 10^-3 | Organ parameters: Right kidney (diabetic rats; second of three A lines): 5.22 g/g × 10^-3 | Organ parameters: Heart (diabetic rats; third of three A lines): 3.44 g/g × 10^-3 | Organ parameters: Heart ventricle (diabetic rats; third of three A lines): 3.03 g/g × 10^-3 | Organ parameters: Left kidney (diabetic rats; third of three A lines): 5.07 g/g × 10^-3 | Organ parameters: Left ventricle (diabetic rats; third of three A lines): 2.32 g/g × 10^-3 | Organ parameters: Right kidney (diabetic rats; third of three A lines): 5.19 g/g × 10^-3 | effect on angiosclerosis (diabetic rats; long-term diabetic rats, 4 weeks of administration): improving angiosclerosis | AGEs fluorescence content in aorta, left ventricular cardiac muscle and kidney (long-term diabetic rats): significantly decreasing | melting point: 182 °C | Breaking rate (OD decrease, %) ([2]; 1 μM): 25.6 ± 2.1% | Breaking rate (OD decrease, %) ([2]; 10 μM): 26.9 ± 3.0% | Breaking rate (OD decrease, %) ([2]; 30 μM): 21.6 ± 5.0% | Breaking rate (OD decrease, %) ([2]; 100 μM): 26.0 ± 2.7% | cardiac muscle collagen dissolubility [3]: 54.7±11.0% and 53.7±11.9% and 57.7±7.3%
